Results: US5990137A, “Method of inhibiting NADPH oxidase” (Idun Pharmaceuticals, Inc., priority 1998, dated 1999)

How the values were obtained:
[1] = tested on: monocytes (TNF secretion); experiment: Specificity: secretion of TNF by monocytes; assay type: cell-based; conditions: 50 μM; LPS stimulated or unstimulated monocytes
Protocol: (§1) To assess specificity of action, the title compound (hereinafter "Azine") was tested for its ability to inhibit other functions of stimulated neutrophils and monocytes. The procedure followed was set forth in Mrowietz et al., British Journal of Dermatology, 127:382-386 (1992); Snyderman, Ralph, Methods for Studying Mononuclear Phagocytes, ed. Adams, Edelson, and Koren, New York, Academic Press, pp. 535-547 (1981); Sozzani et al., The Journal of Immunology, Oct. 1, 1991, pp. 2215-2221; Zigmond et al., The Journal of Experimental Medicine, 137:387 (1973); Wahl et al., Cell Immunol., 85:373 (1984); Wahl et al., Current Protocols in Immunology, ed. Coligan, Kruisbeek, Margulies, Shevach, and Strober, p. 7.6.1 (1991); Hogquist et al., J. Immunol, 147:2181 (1991). The Azine (50 μM) had no effect on chemotaxis of neutrophils activated by the chemotactic peptide f-Met-Leu-Phe.

[2] = tested on: Jurkat cells; experiment: Cytotoxicity assay employing Jurkat cells (MTT); assay type: cell-based; conditions: Jurkat clone E6-1, MTT, 37° C. overnight
Protocol: This Assay was performed as set forth in Hansen et al., Journal of Immunological Methods, 119:203-210 (19930; Mosmann, Journal of Immunological Methods, 65:55-63 (1983); and Slater et al., Biochem. Ciophys. Acta, 77:383 (1963); except as noted below.
Compounds from the following Examples were tested for cytotoxicity using MTT (i.e., 3-[4,5-Dimethylthiazol-2-yl]-2,5-diphenyltetrazolium bromide; Thiazolyl Blue (Sigma, St. Louis, Mo.)).
MTT was dissolved in basal culture media at a concentration of 5 mg/ml. If necessary, it was briefly warmed at 37° C. to fully dissolve, passed through a sterile filter, and aliquoted and stored at -20° C. until use.
The Extraction Buffer used was a solution composed of 20% SDS, 2.5% Acetic Acid (80% 6 stock solution), 2.5% 1N Hcl, 50% Dimethylformamide/50% dissolved in distilled water, SDS was dissolved into buffer components with gentle heating and stirring and the resultant solution was filtered and stored until use.
The MTT solution was added in an amount equal to 10% of the culture volume to each well in a 96-well plate containing 100,000 Jurkat cells/well.
The wells were then incubated for 0.5 to 2 hours in standard culture conditions. A volume of extraction buffer equal to the culture volume was added. The 96-well plate was then sealed. The formazan crystals were allowed to extract at 37° C. for four hours. The plate was read on a spectrophotometer [Spectramax 250, Molecular Devices, Sunnyvale, Calif.] at an absorbance wavelength of 560 nm. (The background absorbance measured at 650 nm was subtracted from the value measured at 560 nm.)
The Jurkat cells (Jurkat clone E6-1) were grown using standard conditions supplied by ATCC (American Type Culture Collection--Rockville, Md.).
The compounds diluted in medium (RPMI 1640 plus 10% fetal bovine serum) stock solution of 100 μM, then this stock solution was further diluted 3-fold before testing in the instant assay.
2-Hydroxy-3-methoxy-E-nitrostyrene tested at 100 μM as death control cells, incubated under the above conditions at 37° C. overnight.
The Extraction Buffer (100 μl) was added to each well and the resultant suspension was incubated 4 hours at 37° C.
The results from this procedure are set forth above in Table 1 in the column marked "Cytotox (MTT/Jurkat)". […] Toxicity was rated "3" if dead cells and >50% reduction in MTT absorbance at 1 μM test compound.

[3] = tested on: isolated neutrophils (opsonized zymosan-stimulated oxidative burst); experiment: Measurement of chemiluminescence of isolated neutrophils (neutrophil burst, Lucigenin); assay type: cell-based; conditions: Neutrophil; for IC50: 14 min, opsonized zymosan, lucigenin, 37° C.
Protocol: Whole blood (150 ml) was anticoagulated with Acid Citrate Dextrose (ACD) using a ratio of 1:5 ACD to blood.
All steps are to be performed using polypropylene plastic ware.
a. Whole blood (60 ml) was added to each of three 100 ml polypropylene graduated cylinders containing 30 ml of […]. The cylinders were covered securely with Parafilm. The blood was allowed to sediment for approximately 1 hour at room temperature.
b. The turbid straw-colored layer was harvested from the top of the cylinders into 50 ml conical polypropylene tubes. The white blood cells were pelleted by centrifugation at 240×g (Sorvall at 1200 rpm) for 12 min. at 4° C. with the brake on low.
c. The supernatant was removed by aspiration and the pooled pellet resuspended in 4-50 ml cold PBS (w/o Ca, Mg). It was then centrifuged at 240×g (Sorvall at 1200 rpm) for 6 min. at 4° C. with the brake on high.
a. The supernatant was aspirated and the pellet resuspended in 12 ml of cold cell culture-grade water. The pellet was titrated gently with a pipet for exactly 30 seconds then 4 ml of cold 0.6 M KCl was added. It was then QSed to 50 ml with cold PBS (w/o Ca, Mg) and centrifuged at 300×g (Sorvall TY 6000D at 1400 rpm) for 6 min. at 4° C. with the brake on high.
b. Step 2.a. was repeated once more.
a. The supernatant was aspirated and the cells were resuspended in 2.5 ml cold PBS (w/o Ca, Mg). The cell suspension was carefully layered over 3 ml Ficoll-Hypaque in a 15 ml polypropylene conical tube. It was then centrifuged at 400×g (Sorvall at 1900 rpm) for 30 min. at 4° C. with the brake on low.
b. Aspiration occurred down to the neutrophil pellet. The pellet was resuspended fin cold PBS (w/o Ca, Mg) and transferred to a 50 ml conical tube. It was then QSed to 50 ml with cold PBS (w/o Ca, Mg) and centrifuged at 300×g (Sorvall at 1400 rpm) for 6 min. at 4° C. with the brake on high.
d. The supernatant was aspirated and the pellet resuspended in 50 ml cold PBS (w/o Ca, Mg) and centrifuged at 300×g (Sorvall at 1400 rpm) for 6 min. with the brake on high.
e. The supernatant was aspirated and the neutrophil pellet resuspended in 4.0 ml cold PBS (w/o Ca, Mg). It was kept on ice. Trypan blue (10 μl) was diluted (1:40) and the cells were counted using a hemacytometer. The cell number and viability by Trypan […] exclusion were determined and the results recorded. The cells were diluted to 5.0×10^6 cells/ml with cold PBS-G (with Ca, Mg) prior to plating for the assay.
2. […] The suspension was centrifuged and the particles resuspended in 7 ml of PBS-G (with Ca, Mg)(18 mg/ml). It was stored on ice until used (briefly vortexed prior to pipetting).
4. PBS-G (10 μl) (with Ca, Mg) was added to the wells in a white 96 well plate.
6. The compound dilutions (10 μl) were added to the appropriate wells.
7. The cell prep was diluted to 5.0×10^6 cells/ml with PBS-G (with Ca, Mg) in a separate multipipette trough.
8. The neutrophil suspension (20 μl) was added to the appropriate wells.
9. The plate was incubated at 37° C. for three minutes.
10. Zymosan (10 μl of 18 mg/ml) was added to the appropriate wells.
11. The plate was read on the luminometer (Labsystems Luminoskan, Needham Heights, Mass.) for 14 min. at 37° C. on the kinetic mode and the results recorded using the software DeltaSoft.
12. The plate data was exported into Excel to determine percent of control and derive the means and standard deviations for the data. The IC50 was determined graphically from the data and plotted using SigmaPlot. For cases where one concentration (50 μM) was tested, percent inhibition was compared to that seen with 50 μM apocynin.
13. The results are set forth below in Table 1 as "Neutrophil Burst IC50 (Lucigenin)". The results for 50 μM inhibition in the single assay are reported as "Neutrophil Burst Screen Value (% @ 50 μM)".

[4] = tested on: neutrophils; experiment: Specificity: chemotaxis of neutrophils activated by f-Met-Leu-Phe; assay type: cell-based; conditions: 50 μM
Protocol: as §1

[5] = molecular target: T1, Xanthine oxidase (Bos taurus, UniProt P80457); experiment: Xanthine oxidase assay (superoxide by hypoxanthine/xanthine oxidase, Lucigenin); assay type: biochemical; conditions: hypoxanthine 150 μM, buttermilk xanthine oxidase, 37° C.; for IC50: read-out: Xanthine Oxidase Inhibition IC50 (Integral)
T1 construct: purchased Sigma x-1875; host or cells: buttermilk

[6] = tested on: monocytes (IL-1 secretion); experiment: Specificity: secretion of IL-1 by monocytes; assay type: cell-based; conditions: 50 μM; LPS stimulated or unstimulated monocytes
Protocol: as §1

T1 sequence (P80457 whole entry): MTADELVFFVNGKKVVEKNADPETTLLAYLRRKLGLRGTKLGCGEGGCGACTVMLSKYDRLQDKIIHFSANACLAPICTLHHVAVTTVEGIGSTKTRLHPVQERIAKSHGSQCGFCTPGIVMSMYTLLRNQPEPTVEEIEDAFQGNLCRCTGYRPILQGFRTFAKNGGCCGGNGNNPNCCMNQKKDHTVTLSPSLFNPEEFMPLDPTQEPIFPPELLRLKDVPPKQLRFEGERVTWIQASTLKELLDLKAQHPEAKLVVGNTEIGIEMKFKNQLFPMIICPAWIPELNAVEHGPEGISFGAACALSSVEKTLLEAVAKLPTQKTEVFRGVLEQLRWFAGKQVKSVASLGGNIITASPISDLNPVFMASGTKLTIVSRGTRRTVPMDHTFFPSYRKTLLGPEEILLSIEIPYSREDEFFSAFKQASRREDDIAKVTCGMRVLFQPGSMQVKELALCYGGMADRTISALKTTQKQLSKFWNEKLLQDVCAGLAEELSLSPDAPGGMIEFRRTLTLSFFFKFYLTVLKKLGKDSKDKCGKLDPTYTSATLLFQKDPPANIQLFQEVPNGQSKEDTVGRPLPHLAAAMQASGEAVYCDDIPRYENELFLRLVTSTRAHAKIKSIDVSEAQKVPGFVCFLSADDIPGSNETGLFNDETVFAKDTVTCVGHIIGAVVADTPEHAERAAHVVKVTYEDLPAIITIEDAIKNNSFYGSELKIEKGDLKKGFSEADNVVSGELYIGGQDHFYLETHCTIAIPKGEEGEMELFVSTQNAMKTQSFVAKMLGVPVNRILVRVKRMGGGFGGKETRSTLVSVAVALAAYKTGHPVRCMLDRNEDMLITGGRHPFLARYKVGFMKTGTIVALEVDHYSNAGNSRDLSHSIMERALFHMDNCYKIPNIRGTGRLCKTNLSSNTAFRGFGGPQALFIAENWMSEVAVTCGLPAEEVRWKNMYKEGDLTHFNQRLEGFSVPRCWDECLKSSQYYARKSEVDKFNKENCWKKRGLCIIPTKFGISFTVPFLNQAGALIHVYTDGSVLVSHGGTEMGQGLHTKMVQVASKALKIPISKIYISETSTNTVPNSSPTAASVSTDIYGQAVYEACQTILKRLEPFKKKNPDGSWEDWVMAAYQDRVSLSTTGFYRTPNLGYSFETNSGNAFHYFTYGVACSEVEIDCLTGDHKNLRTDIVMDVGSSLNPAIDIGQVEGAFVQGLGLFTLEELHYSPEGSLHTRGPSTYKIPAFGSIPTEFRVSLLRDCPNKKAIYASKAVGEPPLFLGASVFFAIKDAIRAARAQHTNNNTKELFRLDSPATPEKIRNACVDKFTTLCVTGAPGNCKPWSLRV

In the case of `COc1cc(/C=N/N=C/c2ccc(O)c(OC)c2)ccc1O` [C, Bis[4-hydroxy-3-methoxybenzaldehyde]-trans,trans-azine], the “inhibition of secretion of TNF” value [1] is reported as “did not inhibit”, the “Cytotox (MTT/Jurkat)” value [2] is reported as 0 and the IC50 [3] is reported as 4.9 µM. For the same compound, the inhibition at 50 µM ([3]; percent inhibition at 50 μM, single concentration, read-out: Neutrophil Burst Screen Value (% @ 50 μM)) was 85.6%, the “effect on chemotaxis of neutrophils” value [4] was “no effect” and the “Xanthine Oxidase Inhibition IC50 (Integral)” value [5] was “No Effect”. For the same compound, the “inhibition of secretion of IL-1” value [6] was “did not inhibit”.
`Oc1ccc(/C=N/N=C/c2ccc(O)c(O)c2)cc1O` [Example 12, Bis[3,4 - Dihydroxybenzaldehyde]trans,trans-Azine] was tested, and the “Cytotox (MTT/Jurkat)” value [2] was 1 (dead cells and >50% reduction in MTT absorbance were observed at 100 μM of the test compound), the IC50 [3] was 7.3 µM and the IC50 [5] was 1.1 µM.
`COc1cc(/C=N/N=C/c2ccccc2)ccc1O` [Example 13, N-[4-Hydroxy-3-Methoxybenzaldehyde]-N'-[Benzaldehyde]trans,trans-Azine] was tested, and the “Cytotox (MTT/Jurkat)” value [2] was 0, the IC50 [3] was 44 µM and the “Xanthine Oxidase Inhibition IC50 (Integral)” value [5] was “No Effect”.
`COc1ccc(N=Cc2ccc(O)c(OC)c2)cc1` [Example 17, N-(3-Methoxy-4-Hydroxybenzylidene)-p-Methoxyaniline] was tested, and the “Cytotox (MTT/Jurkat)” value [2] was 0, the IC50 [3] was 3.1 µM and the “Xanthine Oxidase Inhibition IC50 (Integral)” value [5] was “No Effect”.
For `COc1ccc(N=Cc2cc(OC)c(O)c(OC)c2)cc1` [Example 18, N-(3,5-Dimethoxy-4-Hydroxybenzylidene)-p-Methoxyaniline], the “Cytotox (MTT/Jurkat)” value [2] was 0, the IC50 [3] was 5 µM and the IC50 [5] was 32 µM.
